Data published in patent US8506964B2, “Fusion proteins and related compositions, methods and systems for treatment and/or prevention of atherosclerosis” (priority 2010, dated 2013).

How the values were obtained:
apo E −/− mice = assay: Subcutaneous immunization of apo E −/− mice with peptide test articles, plaque size in en face aorta; type: in vivo
Text: Inhibition of atherosclerosis in apo E −/− mice by immunization with fifteen different test articles based on fifteen different peptide fragments of apo B was investigated.
In these experiments, apo E −/− mice received primary subcutaneous immunization at 6-7 weeks of age, followed by two boosters administered […]. The mice were fed a high cholesterol diet from 1 week after the second injection (10 weeks of age) and continued until sacrifice at 25 weeks of age. The effect of immunization on atherosclerosis formation was assessed by measuring plaque size (percent area stained with Oil Red O) in an en face preparation of the aorta.
Based on the results from these and other experiments, four peptides were identified as particularly effective in reducing the progression of atherosclerosis.

mouse LDL = assay: ELISA of sera for antibodies to mouse LDL; type: in vivo; settings: parenteral immunization; data not shown
Method: ELISA methods were used to quantitate serum Ig isotypes specific for the apoB-100 peptide as well as total IgG and IgM as previously described (ref. 19). Sera from immunized mice were tested for antibodies to mouse LDL by incubation (1/50, 1/150 and 1/450 dilutions) in plates coated with mouse LDL (10 μg/ml) and using alkaline phosphatase-conjugated anti-mouse-IgG as detector antibody. Sera from C57BL/6 mice immunized with OVA-CTB were assayed for reactivity to mouse or human LDL, or to apoB100, at dilutions of 1/25, 1/250 and 1/2500.

[1] = subcutaneous immunization at 6-7 weeks, boosters 3 and 5 weeks later, high cholesterol diet, plaque size (percent area Oil Red O) at 25 weeks

Substance | Reduction in atherosclerosis progression (apo E −/− mice; [1]) | also measured
ATRFK HLRKY TYNYE AESSS (ATRFKHLRKYTYNYEAESSS; Apolipoprotein B-100; UniProt P04114 43-62, looked up, fragment) [Peptide P2] | (−42%, p < 0.05) | 
IEIGL EGKGF EPTLE ALFGK (IEIGLEGKGFEPTLEALFGK) [Peptide P45] | (−53%, p < 0.05) | 
KTTKQ SFDLS VKAQY KKNKH (KTTKQSFDLSVKAQYKKNKH) [Peptide P210] | (−49%, p = 0.06) | 
SLTST SDLQS GIIKN TASLK [Peptide P102] |  | Reduction in atherosclerosis progression (apo E −/− mice; mouse, in vivo, sc): (−52%, p < 0.05)
ovalbumin |  | IgG antibody responses to mouse LDL (mouse LDL): did not lead to induction of significant IgG antibody responses
